Assay results taken from ChEMBL document CHEMBL3217419, “Blockage of collagen binding to integrin 21: structureactivity relationship of proteinprotein interaction inhibitors” (Medchemcomm, 2011).

How the values were obtained:
Integrin alpha-1 = target: T1, Integrin alpha-1 (Homo sapiens, UniProt P56199); assay: Inhibition of human alpha1 integrin expressed in CHO cells binding to collagen I after 2 hrs by cell-adhesion-based WST-1 assay
T1 sequence (P56199 whole entry): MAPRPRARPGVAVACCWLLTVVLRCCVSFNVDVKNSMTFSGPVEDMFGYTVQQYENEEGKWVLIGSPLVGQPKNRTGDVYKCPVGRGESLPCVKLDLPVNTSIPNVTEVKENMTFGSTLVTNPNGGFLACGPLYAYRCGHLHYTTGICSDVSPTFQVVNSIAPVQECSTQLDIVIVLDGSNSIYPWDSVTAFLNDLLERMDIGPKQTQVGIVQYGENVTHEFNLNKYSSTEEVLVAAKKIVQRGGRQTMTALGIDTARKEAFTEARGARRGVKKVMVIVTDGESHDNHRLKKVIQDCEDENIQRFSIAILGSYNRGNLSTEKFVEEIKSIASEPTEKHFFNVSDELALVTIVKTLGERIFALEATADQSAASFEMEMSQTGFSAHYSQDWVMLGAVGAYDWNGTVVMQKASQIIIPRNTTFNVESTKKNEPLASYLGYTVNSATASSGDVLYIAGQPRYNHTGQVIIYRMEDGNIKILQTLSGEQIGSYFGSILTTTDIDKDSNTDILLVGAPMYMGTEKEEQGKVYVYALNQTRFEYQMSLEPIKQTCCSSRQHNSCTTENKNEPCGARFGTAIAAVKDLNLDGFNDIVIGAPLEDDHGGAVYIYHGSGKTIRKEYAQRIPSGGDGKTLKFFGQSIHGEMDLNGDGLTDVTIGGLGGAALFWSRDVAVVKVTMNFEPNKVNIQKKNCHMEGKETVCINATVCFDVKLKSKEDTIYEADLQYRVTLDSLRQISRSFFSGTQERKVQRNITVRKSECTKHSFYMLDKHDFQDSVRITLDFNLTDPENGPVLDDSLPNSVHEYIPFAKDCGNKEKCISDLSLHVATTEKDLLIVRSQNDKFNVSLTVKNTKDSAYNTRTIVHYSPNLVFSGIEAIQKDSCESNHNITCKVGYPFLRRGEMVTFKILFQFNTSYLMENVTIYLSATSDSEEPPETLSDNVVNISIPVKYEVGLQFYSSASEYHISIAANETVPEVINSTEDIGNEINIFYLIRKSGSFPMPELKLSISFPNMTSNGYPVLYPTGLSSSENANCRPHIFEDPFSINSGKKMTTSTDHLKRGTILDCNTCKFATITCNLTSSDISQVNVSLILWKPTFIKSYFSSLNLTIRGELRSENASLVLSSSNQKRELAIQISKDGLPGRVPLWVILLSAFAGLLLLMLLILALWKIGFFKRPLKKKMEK

[1] = target: Integrin alpha-1 (Homo sapiens) (UniProt P56199); assay: Inhibition of human alpha1 integrin expressed in CHO cells binding to collagen I at 50 uM after 2 hrs by cell-adhesion-based WST-1 assay
[2] = target: Integrin alpha-1 (Homo sapiens) (UniProt P56199); assay: Inhibition of human alpha1 integrin expressed in CHO cells binding to collagen I at 100 uM after 2 hrs by cell-adhesion-based WST-1 assay relative to control
CHO [3] = assay: Cytotoxicity against CHO cells assessed as release of lactate dehydrogenase by resazurin assay; format: cell-based, Cricetulus griseus; conditions: chinese hamster
CHO [4] = assay: Selectivity ratio of EC50 for human alpha2 integrin expressed in CHO cells binding to collagen IV to EC50 for human alpha1 integrin expressed in CHO cells binding to collagen I; format: cell-based
[5] = Lipophilicity, log P of the compound; format: physicochemical; conditions: octanol/water
Integrin alpha2/beta1 = Integrin alpha2/beta1 (Homo sapiens, UniProt P05556+P17301); assay: Binding affinity to alpha2beta1 integrin (unknown origin); format: protein-complex assay
Sequence of Integrin alpha2/beta1 (P05556 whole entry): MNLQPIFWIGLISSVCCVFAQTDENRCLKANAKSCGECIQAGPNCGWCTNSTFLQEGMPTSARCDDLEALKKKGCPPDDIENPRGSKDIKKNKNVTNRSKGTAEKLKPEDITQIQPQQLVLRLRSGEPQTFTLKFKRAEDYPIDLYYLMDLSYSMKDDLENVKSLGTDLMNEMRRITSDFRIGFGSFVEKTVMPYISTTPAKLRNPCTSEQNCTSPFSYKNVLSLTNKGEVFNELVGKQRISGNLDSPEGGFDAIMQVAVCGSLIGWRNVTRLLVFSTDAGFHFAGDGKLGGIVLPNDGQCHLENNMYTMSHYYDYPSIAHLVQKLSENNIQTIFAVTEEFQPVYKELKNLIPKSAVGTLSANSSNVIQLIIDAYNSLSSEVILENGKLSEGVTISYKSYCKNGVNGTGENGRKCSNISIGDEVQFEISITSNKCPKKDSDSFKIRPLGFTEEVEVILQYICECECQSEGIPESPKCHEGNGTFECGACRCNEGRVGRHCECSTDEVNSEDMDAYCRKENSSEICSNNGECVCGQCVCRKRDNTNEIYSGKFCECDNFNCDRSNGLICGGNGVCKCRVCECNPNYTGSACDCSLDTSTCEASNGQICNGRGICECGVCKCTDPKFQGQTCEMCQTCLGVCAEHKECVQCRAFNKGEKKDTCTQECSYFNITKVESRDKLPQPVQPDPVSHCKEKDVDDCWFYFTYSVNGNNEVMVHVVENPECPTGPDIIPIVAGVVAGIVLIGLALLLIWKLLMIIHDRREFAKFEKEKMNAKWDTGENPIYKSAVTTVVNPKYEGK
Sequence of Integrin alpha2/beta1 (P17301 whole entry): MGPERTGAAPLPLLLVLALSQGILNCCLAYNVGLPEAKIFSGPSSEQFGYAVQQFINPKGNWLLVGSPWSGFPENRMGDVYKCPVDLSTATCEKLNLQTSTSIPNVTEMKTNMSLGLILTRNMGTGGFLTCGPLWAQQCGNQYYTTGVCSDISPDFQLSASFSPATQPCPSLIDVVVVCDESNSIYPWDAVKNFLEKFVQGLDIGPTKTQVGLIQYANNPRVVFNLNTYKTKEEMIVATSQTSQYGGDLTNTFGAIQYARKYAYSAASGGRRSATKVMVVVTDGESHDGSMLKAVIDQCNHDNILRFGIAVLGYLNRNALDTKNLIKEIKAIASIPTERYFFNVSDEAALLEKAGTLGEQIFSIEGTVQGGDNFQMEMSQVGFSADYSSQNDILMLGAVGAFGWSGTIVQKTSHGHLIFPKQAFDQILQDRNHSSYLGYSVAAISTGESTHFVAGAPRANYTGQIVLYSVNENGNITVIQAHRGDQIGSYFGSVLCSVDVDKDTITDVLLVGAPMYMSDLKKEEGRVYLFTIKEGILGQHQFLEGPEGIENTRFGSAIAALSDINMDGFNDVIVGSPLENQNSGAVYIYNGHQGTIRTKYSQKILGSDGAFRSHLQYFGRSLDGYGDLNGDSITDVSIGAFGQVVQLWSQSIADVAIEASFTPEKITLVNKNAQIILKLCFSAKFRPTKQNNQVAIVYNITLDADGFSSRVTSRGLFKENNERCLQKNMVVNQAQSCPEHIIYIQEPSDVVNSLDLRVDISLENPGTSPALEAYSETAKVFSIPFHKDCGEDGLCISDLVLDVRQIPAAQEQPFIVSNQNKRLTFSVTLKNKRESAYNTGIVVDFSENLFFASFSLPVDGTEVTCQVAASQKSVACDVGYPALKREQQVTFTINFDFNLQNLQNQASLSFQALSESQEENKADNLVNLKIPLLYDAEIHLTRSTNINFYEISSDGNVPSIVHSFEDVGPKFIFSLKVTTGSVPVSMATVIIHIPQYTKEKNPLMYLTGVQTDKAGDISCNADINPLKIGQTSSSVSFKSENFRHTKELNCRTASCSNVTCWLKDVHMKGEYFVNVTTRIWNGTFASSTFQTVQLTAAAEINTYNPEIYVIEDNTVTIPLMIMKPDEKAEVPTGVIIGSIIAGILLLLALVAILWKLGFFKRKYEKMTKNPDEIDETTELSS

SMILES | EC50 (Integrin alpha-1) | inhibition [1] | Imax [2] | Activity (CHO [3]) | Ratio EC50 (CHO [4]) | logP [5] | EC50 (Integrin alpha2/beta1)
CN(c1cccc(C(=O)c2ccccc2)c1)S(=O)(=O)c1ccc(Cl)cc1Cl | Not Active | 8% |  |  |  |  | 
Cc1ccc(S(=O)(=O)Nc2cccc(C(=O)c3ccccc3)c2)cc1 | Not Active | 34% | 34% | <= 200 uM |  |  | 
O=C(c1ccccc1)c1ccc(NS(=O)(=O)c2ccccc2)cc1 | Not Active | 0% |  | <= 200 uM |  |  | 
O=C(c1ccccc1)c1cccc(NS(=O)(=O)c2ccc(I)cc2)c1 |  | 72% | 72% | <= 200 uM |  |  | 
O=C(c1ccccc1)c1cccc(NS(=O)(=O)c2ccc(Cl)cc2Cl)c1 |  | 69% | 69% | <= 200 uM | 3 |  | 
CN(c1ccc2c(c1)C(=O)c1ccccc1-2)S(=O)(=O)c1ccc(Cl)cc1Cl | Not Active | 0% |  |  |  |  | 
O=C(c1ccccc1)c1cccc(NS(=O)(=O)c2ccc(Br)cc2)c1 |  | 92% | 96% | <= 200 uM | 2.2 |  | 
O=C(c1ccccc1)c1ccc(OS(=O)(=O)c2cc(Cl)cc(Cl)c2O)cc1 |  | 86% | 95% | <= 100 uM | 2.8 | 3.1 | 
O=C(c1ccccc1)c1ccc(OS(=O)(=O)c2ccc(Cl)cc2Cl)cc1 | Not Active | 0% |  |  |  |  | 
CC(=O)c1cccc(NS(=O)(=O)c2ccc(Cl)cc2Cl)c1 | Not Active | 0% |  |  |  |  | 
O=S(=O)(Nc1ccc2c(c1)Cc1ccccc1-2)c1ccc(Cl)cc1Cl |  | 70% | 87% | <= 200 uM | 0.8 | 4.1 | 
O=C1c2ccccc2-c2ccc(NS(=O)(=O)c3ccc(Cl)cc3Cl)cc21 |  | 93% | 93% | <= 200 uM | 1.2 |  | 
CN(c1ccc(C(=O)c2ccccc2)cc1)S(=O)(=O)c1ccc(Cl)cc1Cl | Not Active | 0% |  |  |  |  | 
O=C(c1ccccc1)c1ccc(NS(=O)(=O)c2cccc(-c3ccc(F)cc3)c2)cc1 |  |  |  |  |  |  | 2 µM
O=C(c1ccccc1)c1ccc(NS(=O)(=O)c2ccc(I)cc2)cc1 |  | 85% | 85% | <= 200 uM | 1.3 |  | 
O=C(c1ccccc1)c1ccc(NS(=O)(=O)c2ccc(Br)cc2)cc1 | Not Active | 34% | 34% | <= 200 uM |  |  | 
Cc1ccc(S(=O)(=O)Nc2ccc(C(=O)c3ccccc3)cc2)cc1 | Not Active | 35% | 35% | <= 200 uM |  |  | 
O=C(c1ccccc1)c1ccc(NS(=O)(=O)c2ccc(Cl)cc2Cl)cc1 |  | 82% | 82% | <= 20 uM | 1.5 | 3.5 | 
O=C(c1ccccc1)c1cccc(NS(=O)(=O)c2ccccc2)c1 | Not Active | 4% |  | <= 200 uM |  |  | 
